This note sets out measurements from US20090203667A1, “PENTADIENAMIDE DERIVATIVES” (Kyowa Hakko Kirin Co., Ltd., priority 2006, published 2009).

The target in data set [1] is T1, vanilloid receptor (TRPV1) (Rattus norvegicus, UniProt O35433).
T1 construct: The spinal cord was extirpated from an SPF/VAF rat; from tissue; host or cells: rat spinal cord membrane specimen (SPF/VAF rat, Charles River Laboratories Japan Inc.)
Description: [3H]Resiniferatoxin ([3H]RTX) binding experiment using rat spinal cord. The settings on record: rat spinal cord membrane specimen, 37° C., 60 minutes; read-out: IC50 of [3H]RTX specific binding. The procedure:
[^3H]Resiniferatoxin ([^3H]RTX) Binding Experiment Using Rat Spinal Cord
The spinal cord was extirpated from an SPF/VAF rat (Charles River Laboratories Japan Inc.) and homogenized in an ice-cooled homogenization buffer (10 mmol/L HEPES/NaOH, 5 mmol/L KCl, 5.8 mmol/L NaCl, 2 mmol/L MgCl2, 0.75 mmol/L CaCl2, 12 mmol/L glucose, 137 mmol/L sucrose, pH 7.4). The resulting homogenate was centrifuged at 1000 g for 10 minutes at 4° C. The supernatant was centrifuged at 35000 g for 30 minutes at 4° C. The obtained precipitate was suspended in the homogenization buffer. The suspension was used as a tissue membrane specimen, and the protein concentration was determined using a protein assay staining solution (Bio-Rad Laboratories, US). The thus prepared specimen was stored at −80° C.
The known method [The Journal of Pharmacology and Experimental Therapeutics, 267: 728-733 (1993)] was modified and the modified method was performed. 400 μL of a membrane specimen solution (protein amount: about 50 μg) obtained by diluting the prepared specimen with an assay buffer (10 mmol/L HEPES/NaOH, 5 mmol/L KCl, 5.8 mmol/L NaCl, 2 mmol/L MgCl2, 0.75 mmol/L CaCl2, 12 mmol/L glucose, 137 mmol/L sucrose, 0.25 mg/mL bovine serum albumin, pH 7.4), 50 μL of a test compound solution, and 50 μL of [^3H]RTX (PerkinElmer Life Sciences Inc., US) were mixed and the mixture was incubated at 37° C. for 60 minutes. The reaction mixture was transferred on ice, and 50 μL of previously ice-cooled 2 mg/mL α1 acid glycoprotein (Sigma) was added thereto, and then, the mixture was centrifuged at 12000 g for 15 minutes at 4° C. A procedure in which 0.4 mL of the assay buffer was added to the obtained precipitate and the mixture was centrifuged at 12000 g for 15 minutes at 4° C. was performed twice. The precipitate obtained by the centrifugation was suspended in 0.5 mL of a 0.1 mol/L aqueous NaOH solution. 7 mL of Ultima Gold (Packard, US) was added to the suspension, and the radioactivity of the solution was measured using a liquid scintillation counter (LS6500: Beckman Coulter, Inc., US or TRI-CARB 2700TR: Packard, US). The [^3H]RTX binding amount in the presence of 0.1 μmol/L RTX was considered to be non-specific binding, and the specific binding was calculated by subtracting this value from the total amount of [^3H]RTX binding to the membrane specimen. Then, the replacement amount of the [^3H]RTX specific binding in the presence of the compound to the [^3H]RTX specific binding amount in the absence of the compound was calculated in percent. The IC50 value of the compound in this experiment was obtained from a logistic equation.
The logistic equation was fit to the following equation (equation 205 in the program) in the curve regression program XLfit (IDBS Inc.).
Y: Inhibition ratio X: Concentration of test compound

The subject of data set [2] is entrapment nerve injury rat. Briefly: Neuropathic pain inhibitory activity in entrapment nerve injury rat (von Frey pain threshold). In kind it is in vivo. As to conditions: orally administered, dose of 20 mg/kg or less, measured after 1 hour, von Frey filaments. The text has this:
Neuropathic Pain Inhibitory Activity of Compound in Entrapment Nerve Injury Rat
The method of Mosconi, Kruger et al. (Pain, vol. 64, pp. 37-57 (1996)) was modified partially and an entrapment nerve injury rat was produced.
By using a male Crl:CD(SD) rat, the sciatic nerve of the left hind limb was exfoliated under pentobarbital anesthesia, and the exfoliated region was covered with a polyethylene tube (trade name: Intramedic, size: PE-60, manufactured by Becton Dickinson and Company) with a length of 2 mm. On days 14 to 21 after the surgery, the rat was placed in a stainless-steel connected cage (750 mm (length)×210 mm (depth)×170 mm (height)) consisting of 5 cages connected in a row and having a mesh floor and was acclimated to the environment for at least 20 minutes, and then, the pain was evaluated.
The pain was evaluated using von Frey filaments (trade name: touch test sensory evaluator, Model number: model 58011, manufactured by Muromachi Kikai), and the results were calculated as a pain threshold. That is, by using a von Frey filament of different stimulation intensity, stimulation was given to the paw at the injured side of the entrapment nerve injury rat, and the stimulation intensity at which the paw was withdrawn was obtained. Then, the pain threshold (paw withdrawal threshold) (g) was calculated by the up down method of Dixon [Annual Review of Pharmacology and Toxicology, vol. 20, pp. 441-462 (1980)]. Incidentally, the pain threshold of a normal rat was from 10 to 12 g on an average.
In the evaluation of the test compound, a rat having a 50% pain threshold of less than 4 g was used, and the test compound was dissolved in a 0.5% aqueous methyl cellulose solution and orally administered at a dose of 5 mL/kg. After 1 hour, by using von Frey filaments, the pain threshold was measured.

T1 sequence (O35433 whole entry): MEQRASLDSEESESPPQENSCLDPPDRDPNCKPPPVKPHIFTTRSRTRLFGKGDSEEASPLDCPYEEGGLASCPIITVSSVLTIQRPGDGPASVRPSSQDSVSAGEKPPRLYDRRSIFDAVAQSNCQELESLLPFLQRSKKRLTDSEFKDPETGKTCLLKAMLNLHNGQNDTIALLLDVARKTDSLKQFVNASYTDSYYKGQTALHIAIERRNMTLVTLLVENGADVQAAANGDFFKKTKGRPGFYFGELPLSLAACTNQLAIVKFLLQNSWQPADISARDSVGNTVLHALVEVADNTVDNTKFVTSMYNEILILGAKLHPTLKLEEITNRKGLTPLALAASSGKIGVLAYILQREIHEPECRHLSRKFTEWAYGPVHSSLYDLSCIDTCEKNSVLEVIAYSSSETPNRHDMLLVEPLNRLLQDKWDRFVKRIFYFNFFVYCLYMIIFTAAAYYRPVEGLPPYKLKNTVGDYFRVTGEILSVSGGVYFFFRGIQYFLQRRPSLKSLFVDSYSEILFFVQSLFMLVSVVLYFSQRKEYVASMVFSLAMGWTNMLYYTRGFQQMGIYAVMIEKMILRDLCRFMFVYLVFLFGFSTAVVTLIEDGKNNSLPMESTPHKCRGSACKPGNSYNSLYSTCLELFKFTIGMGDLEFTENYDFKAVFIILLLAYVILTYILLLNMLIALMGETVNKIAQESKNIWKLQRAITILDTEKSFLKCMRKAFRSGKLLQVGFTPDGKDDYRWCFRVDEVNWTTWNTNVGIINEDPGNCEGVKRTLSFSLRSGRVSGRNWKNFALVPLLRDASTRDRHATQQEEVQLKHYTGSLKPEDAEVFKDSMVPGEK

The melting point is the temperature of the solid-liquid transition. As a reminder, the IC50 is the point on the concentration scale where inhibition reaches its midpoint. In turn, `O=C(/C=C/C=C(\c1ccc(F)cc1)c1ccc(C(F)(F)F)cc1)Nc1cccc2cnccc12` [Compound 74, (2E,4Z)-5-(4-Fluorophenyl)-N-(isoquinolin-5-yl)-5-[4-(trifluoromethyl)phenyl]-2,4-pentadienamide] yielded a melting point of 142 to 143 °C. Also, the IC50 in data set [1] was less than 100 nM. In addition, the “pain threshold (paw withdrawal threshold)” value in data set [2] is given as “significantly increases the pain threshold”.
